From US20090181948A1, “DIAMINE DERIVATIVE” (KYOWA HAKKO KOGYO CO., LTD., priority 2005, published 2009)

Key:
histamine H3 receptor [1] = biological target: T1, histamine H3 receptor (Rattus norvegicus, UniProt Q9QYN8); assay: Histamine H3 receptor binding assay ([3H]-Nα-methylhistamine binding to rat striatum homogenate); conditions: 1 μmol/L test compound; [3H]-Nα-methylhistamine 1 nmol/L; striata of Sprague-Dawley male rats, 25° C., 1 hour; read-out: Inhibition ratio of [3H]-Nα-methylhistamine binding
T1 construct: from tissue; host or cells: rat striatum (Sprague-Dawley, male, 6 weeks), membrane homogenate
T1 sequence (Q9QYN8 whole entry): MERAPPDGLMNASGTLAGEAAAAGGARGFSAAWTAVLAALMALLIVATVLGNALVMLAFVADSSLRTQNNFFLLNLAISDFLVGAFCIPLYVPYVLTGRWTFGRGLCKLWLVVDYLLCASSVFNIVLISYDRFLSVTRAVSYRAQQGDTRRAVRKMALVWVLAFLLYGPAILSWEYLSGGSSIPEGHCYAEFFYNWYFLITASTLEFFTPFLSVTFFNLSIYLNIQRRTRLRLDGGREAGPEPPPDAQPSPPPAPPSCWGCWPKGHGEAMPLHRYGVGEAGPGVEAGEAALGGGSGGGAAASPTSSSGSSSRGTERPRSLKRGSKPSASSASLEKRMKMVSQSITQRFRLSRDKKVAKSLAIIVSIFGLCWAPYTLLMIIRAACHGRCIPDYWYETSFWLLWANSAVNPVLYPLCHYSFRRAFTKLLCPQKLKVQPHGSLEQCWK
Summary of the method: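 Rat striatum membranes (20 μg protein) incubated with [3H]-Nα-methylhistamine 1 nmol/L in 50 mmol/L Tris/HCl pH 7.4, 5 mmol/L EDTA, 1 hour at 25° C; bound ligand by filtration and scintillation counting. Nonspecific binding defined with 10 μmol/L thioperamide; % inhibition reported at 1 μmol/L compound.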

histamine H3 receptor [2] = biological target: T1, histamine H3 receptor; assay: Inhibitory effect on histamine release suppressive action of histamine H3 receptor agonist (Nα-methylhistamine) in rat forebrain synaptosomes; assay type: biochemical; conditions: 1 μmol/L test compound and 1 μmol/L Nα-methylhistamine, potassium 30 mmol/L stimulation, read-out: Inhibition ratio of the [3H]-histamine release suppressive action of Nα-methylhistamine
Method: To the forebrains of Sprague-Dawley male rats (6 to 8 weeks of age), a 30-fold volume of a 0.32 mol/L aqueous sucrose solution was added and the forebrains were homogenized. The resulting homogenate was centrifuged (1,000×g, 4° C., 10 min), and to the obtained supernatant, an equivalent volume of Krebs-Ringer solution [120 mmol/L sodium chloride, 0.8 mmol/L potassium chloride, 2.6 mmol/L calcium chloride, 0.67 mmol/L magnesium sulfate, 1.2 mmol/L potassium dihydrogen phosphate, 27.5 mmol/L sodium bicarbonate, 10 mmol/L glucose (pH 7.3)] was added, and the resulting mixture was centrifuged (10,000×g, 4° C., 15 min). To the obtained precipitate, a 15-fold volume of Krebs-Ringer solution was added to suspend the precipitate. Then, the concentration of protein in the resulting tissue homogenate (synaptosomes) was measured and used for a test.
To the synaptosomes (300 μg in terms of protein amount) prepared by the above-described method, a [^3H]-histidine solution [final concentration: […] (740 kBq)/mL]: 6 μl of a 37 MBq/mL (specific activity: […]) solution] was added, and the total volume was adjusted to 300 μL with Krebs-Ringer solution. Then, the resulting mixture was incubated at 37° C. for 30 minutes and centrifuged (10,000×g, 25° C., 3 min). To the resulting precipitate (synaptosomes), 300 μL of Krebs-Ringer solution was added, and the mixture was incubated at 37° C. for 5 minutes and centrifuged (10,000×g, 25° C., 3 min). This procedure was repeated 5 times, whereby washing of synaptosomes was carried out. The resulting synaptosomes were suspended in 100 μL of Krebs-Ringer solution, and the resulting suspension was used for the following procedure.
A test compound and N^α-methylhistamine were separately dissolved in Krebs-Ringer solution to give a concentration of 20 μmol/L (the resulting mixtures were referred to as a test compound solution and a N^α-methylhistamine solution, respectively). To 100 μL of the above-described suspended synaptosomes (300 μg in terms of protein amount), 140 μL of Krebs-Ringer solution was added. Then, 30 μL of the test compound solution and 30 μL of the N^α-methylhistamine solution were added thereto, and the resulting mixture was incubated at 37° C. for 2 minutes. Then, an equivalent volume of a stimulating solution [64 mmol/L sodium chloride, 56.8 mmol/L potassium chloride, 2.6 mmol/L calcium chloride, 0.67 mmol/L magnesium sulfate, 1.2 mmol/L potassium dihydrogen phosphate, 27.5 mmol/L sodium bicarbonate, 10 mmol/L glucose (pH 7.3)] (final potassium concentration: 30 mmol/L) was added, and the resulting mixture was incubated at 37° C. for 2 minutes to release [^3H]-histamine. The reaction mixture was centrifuged (10,000×g, 25° C., 3 min), and the obtained supernatant was passed through Amberlite CG-50 column (250 μL), and the non-adsorbed fractions were discarded. Then, 2 mL of 50 mmol/L [[…]]/hydrochloric acid (HCl) (pH 7.5) (Tris) was passed through the column 3 times, and 2 mL of distilled water, and 1.5 mL of a 0.2 mol/L aqueous sodium hydroxide solution were passed through the column in this order, and the eluted fractions were discarded. Then, 2 mL of a 0.2 mol/L aqueous sodium hydroxide solution was passed through the column, and the eluted fraction was recovered in a scintillation vial. Then, 8 mL of Ultimagold (Perkin Elmer) was added to the recovered eluted solution, and the radioactivity ([^3H]-histamine) was measured using a liquid scintillation counter. The inhibitory action of the test compound on the histamine release suppressive action of N^α-methylhistamine was evaluated by obtaining the inhibition ratio to the histamine release suppressive action in the presence of 1 μmol/L No-methylhistamine and 1 μmol/L of the test compound. The inhibition ratio of the [^3H]-histamine release suppressive action was calculated using the following Equation (2). […]

inhibition at 1 µM (histamine H3 receptor [1]) [%]	inhibition at 1 µM (histamine H3 receptor [2]) [%]	melting point [°C]	Structure (SMILES)
≥ 80	≥ 70	139 to 141	C[C@@H]1CCCN1CCN1CCN(CCN2CCC[C@H]2C)C1=C(C#N)C#N [Compound 189, {1,3-Bis[2-((R)-2-methylpyrrolidin-1-yl)ethyl]imidazolidin-2-ylidene}malononitrile]
≥ 80	≥ 70	89 to 90	C[C@@H]1CCCN1CCN1CCN(CCCN2CCCCC2)C1=C(C#N)C#N [Compound 193, {1-[2-((R)-2-methylpyrrolidin-1-yl)ethyl]-3-(3-piperidinopropyl)imidazolidin-2-ylidene}malononitrile]
≥ 80	≥ 70	96 to 97	C[C@@H]1CCCN1CCCN1C(=C(C#N)C#N)N(CCCN2CCC[C@H]2C)c2ccccc21 [Compound 205, {1,3-Bis[3-((R)-2-methylpyrrolidin-1-yl)propyl]benzimidazolidin-2-ylidene}malononitrile]
≥ 80	≥ 70	104 to 105	N#CC(C#N)=C1N(CCCN2CCCCC2)CCN1C1CCN(C2CC2)CC1 [Compound 226, [1-(1-Cyclopropylpiperidin-4-yl)-3-(3-piperidinopropyl)imidazolidin-2-ylidene]malononitrile]
≥ 80	≥ 70	124 to 125	CC(C)N1CCC(N2CCN(CCCN3CCSCC3)C2=C(C#N)C#N)CC1 [Compound 231, [1-(1-Isopropylpiperidin-4-yl)-3-(3-thiomorpholin-1-ylpropyl)imidazolidin-2-ylidene]malononitrile]
≥ 80	≥ 70	103 to 105	CC(C)N1CCC(N2CCN(CCCN3CCC(=O)CC3)C2=C(C#N)C#N)CC1 [Compound 233, {1-(1-Isopropylpiperidin-4-yl)-3-[3-(4-oxopiperidino)propyl]imidazolidin-2-ylidene}malononitrile]
≥ 80	≥ 70	117 to 118	CC(C)N1CCC(N2CCN(CCCN3C[C@@H](C)O[C@@H](C)C3)C2=C(C#N)C#N)CC1 [Compound 234, {3-[3-(Cis-2,6-dimethylmorpholino)propyl]-1-(1-isopropylpiperidin-4-yl)imidazolidin-2-ylidene}malononitrile]

Continued, molecule first:

Structure (SMILES)	inhibition at 1 µM (histamine H3 receptor [1]) [%]	inhibition at 1 µM (histamine H3 receptor [2]) [%]	melting point [°C]
C[C@H]1CCCN1CCN1CCN(CCCN2CCCCC2)C1=C(C#N)C#N [Compound 58, {1-[2-((S)-2-methylpyrrolidin-1-yl)ethyl]-3-(3-piperidinopropyl)imidazolidin-2-ylidene}malononitrile]	≥ 80	≥ 70	95 to 96
CC1CCCN1CCCN1CCN(CCCN2CCCC2C)C1=C(C#N)C#N (stereo not drawn) [Compound 65, {1,3-Bis[3-(2-methylpyrrolidin-1-yl)propyl]imidazolidin-2-ylidene}malononitrile]	≥ 80	≥ 70	89 to 93
C[C@H]1CCCN1CCCN1CCN(CCCN2CCC[C@@H]2C)C1=C(C#N)C#N [Compound 115, {1,3-Bis[3-((S)-2-methylpyrrolidin-1-yl)propyl]imidazolidin-2-ylidene}malononitrile]	≥ 80	≥ 70	79 to 80
CC1CCCN1CCCN1CCN(CCCN2CCC[C@@H]2CO)C1=C(C#N)C#N (stereo partly drawn) [Compound 119, {1-[3-((R)-2-hydroxymethylpyrrolidin-1-yl)propyl]-3-[3-(2-methylpyrrolidin-1-yl)propyl]imidazolidin-2-ylidene}malononitrile]	≥ 80	≥ 70	57 to 59
CC1CCCN1CCCN1CCN(CCCN2CCCC2C)C1=CS(=O)(=O)CC#N (stereo not drawn) [Compound 137, {1,3-Bis[3-(2-methylpyrrolidin-1-yl)propyl]imidazolidin-2-ylidene}methanesulfonylacetonitrile]	≥ 80	≥ 70	106 to 110
N#CC(C#N)=C(NCCN1CCCCC1)N1CCC(N2CCCCC2)CC1 [Compound 143, [(2-Piperidinoethylamino)(4-piperidinopiperidino)methylene]malononitrile]	≥ 80	≥ 70	198 to 200
CN(CCN1CCCCC1)C(=C(C#N)C#N)N1CCC(N2CCCCC2)CC1 [Compound 144, {[Methyl(2-piperidinoethyl)amino](4-piperidinopiperidino)methylene}malononitrile]	≥ 80	≥ 70	109 to 111
CN(CCCN1CCCCC1)C(=C(C#N)C#N)N1CCC(N2CCCC2)CC1 [Compound 159, {[N-methyl-N-(3-piperidinopropyl)amino][4-(pyrrolidin-1-yl)piperidino]methylene}malononitrile]	≥ 80	≥ 70	116 to 117
N#CC(C#N)=C(NCCCN1CCCCC1)N1CCC(N2CCCCC2)CC1 [Compound 160, [(4-Piperidinopiperidino)(3-piperidinopropylamino)methylene]malononitrile]	≥ 80	≥ 70	117 to 118
CN(CCCN1CCCCC1)C(=C(C#N)C#N)N1CCC(N2CCCCC2)CC1 [Compound 161, {[N-methyl-N-(3-piperidinopropyl)amino](4-piperidinopiperidino)methylene}malononitrile]	≥ 80	≥ 70	104 to 105
N#CC(C#N)=C(NCCCN1CCOCC1)N1CCC(N2CCCCC2)CC1 [Compound 165, [(4-Piperidinopiperidino)(3-morpholinopropylamino)methylene]malononitrile]	≥ 80	≥ 70	77 to 80
CN(CCCN1CCOCC1)C(=C(C#N)C#N)N1CCC(N2CCCCC2)CC1 [Compound 166]	≥ 80	≥ 70	104 to 106
CC(C)N1CCC(N(C)C(=C(C#N)C#N)N2CCC(N3CCCCC3)CC2)CC1 [Compound 176, {[N-(1-isopropylpiperidin-4-yl)-N-methylamino](4-piperidinopiperidino)methylene}malononitrile]	≥ 80	≥ 70	129 to 130
CC(C)N1CCC(N(C)C(=C(C#N)C#N)N2CCC(CN3CCCC3C)CC2)CC1 (stereo not drawn) [Compound 181, {[N-(1-isopropylpiperidin-4-yl)-N-methylamino][4-(2-methylpyrrolidin-1-ylmethyl)piperidino]methylene}malononitrile]	≥ 80	≥ 70	138 to 140
